According to US6737383B1, “Herbicidal oxadiazolidines” (priority 1999, dated 2004):

Assays:
[1] = test system: morningglory; assay: Test B pre/postemergence morningglory; format: in vivo, Ipomoea hederacea
In short: (§1)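 Response is a visual 0-to-10 score relative to untreated plants, where 0 means no effect and 10 means complete control, taken twelve to sixteen days after application. Treatments went onto soil at planting and onto foliage of 1- to 4-leaf plants, using a surfactant-containing non-phytotoxic solvent.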

[2] = test system: surinam grass; assay: Test B pre/postemergence surinam grass; format: in vivo, Brachiaria decumbens
In short: as §1

[3] = test system: giant foxtail; assay: Test B pre/postemergence giant foxtail; format: in vivo, Setaria faberii
In short: as §1

[4] = test system: soybean; assay: Test B pre/postemergence soybean; format: in vivo, Glycine max
In short: as §1

[5] = test system: purple nutsedge; assay: Test B pre/postemergence purple nutsedge; format: in vivo, Cyperus rotundus
In short: as §1

[6] = test system: sugar beet; assay: Test B pre/postemergence sugar beet; format: in vivo, Beta vulgaris
In short: as §1

[7] = test system: wild oat; assay: Test B pre/postemergence wild oat; format: in vivo, Avena fatua
In short: as §1

[8] = test system: rape; assay: Test B pre/postemergence rape; format: in vivo, Brassica napus
In short: as §1

[9] = test system: pigweed; assay: Test B pre/postemergence pigweed; format: in vivo, Amaranthus retroflexus
In short: as §1

[10] = test system: bedstraw; assay: Test B pre/postemergence bedstraw; format: in vivo, Galium aparine; settings: Preemergence
In short: as §1

[11] = test system: velvetleaf; assay: Test B pre/postemergence velvetleaf; format: in vivo, Abutilon theophrasti
In short: as §1

[12] = test system: cocklebur; assay: Test B pre/postemergence cocklebur; format: in vivo, Xanthium strumarium
In short: as §1

[13] = test system: wheat; assay: Test B pre/postemergence wheat; format: in vivo, Triticum aestivum
In short: as §1

[14] = test system: blackgrass; assay: Test B pre/postemergence blackgrass; format: in vivo, Alopecurus myosuroides
In short: as §1

[15] = test system: corn; assay: Test B pre/postemergence corn; format: in vivo, Zea mays
In short: as §1

[16] = test system: crabgrass; assay: Test B pre/postemergence crabgrass; format: in vivo, Digitaria sanguinalis
In short: as §1

[17] = Postemergence, Rate 125 g/ha, scale of 0 to 10 where 0 is no effect and 10 is complete control
[18] = Preemergence, Rate 62 g/ha, scale of 0 to 10 where 0 is no effect and 10 is complete control
[19] = Preemergence, Rate 125 g/ha, scale of 0 to 10 where 0 is no effect and 10 is complete control
[20] = Preemergence, Rate 250 g/ha, scale 0 (no effect) to 10 (complete control)
[21] = Rate 250 g/ha, Postemergence, scale 0 to 10, 0 is no effect, 10 is complete control
[22] = Rate 500 g/ha, Postemergence, scale 0 to 10, 0 is no effect, 10 is complete control
[23] = Postemergence, Rate 62 g/ha, scale 0 to 10, 0 is no effect, 10 is complete control
[24] = Preemergence, Rate 500 g/ha, scale of 0 to 10 where 0 is no effect and 10 is complete control

## CC(C)N(C(=O)n1oc(=O)n(CF)c1=O)c1ccc(F)cc1 [Compound 709]
[1]; [17]
  Morningglory plant response rating: 0
[1]; [18]
  Morningglory plant response rating: 0
[1]; [19]
  Plant response rating, Morningglory: 0
[1]; [20]
  Morningglory plant response rating: 0
[1]; [21]
  Morningglory plant response rating: 2
[1]; [22]
  Morningglory plant response rating: 6
[2]; [23]
  Plant response rating, B. signalgrass: 0
[2]; [17]
  B. signalgrass plant response rating: 0
[2]; [18]
  B. signalgrass plant response rating: 0
[2]; [19]
  Plant response rating, B. signalgrass: 0
[2]; [20]
  B. signalgrass plant response rating: 0
[2]; [24]
  Plant response rating, B. signalgrass: 0
[2]; [21]
  B. signalgrass plant response rating: 0
[2]; [22]
  B. signalgrass plant response rating: 0
[3]; [23]
  Plant response rating, Giant foxtail: 3
[3]; [17]
  Giant foxtail plant response rating: 4
[3]; [18]
  Giant foxtail plant response rating: 2
[3]; [19]
  Plant response rating, Giant foxtail: 4
[3]; [20]
  Giant foxtail plant response rating: 7
[3]; [21]
  Giant foxtail plant response rating: 8
[3]; [22]
  Giant foxtail plant response rating: 9
[4]; [23]
  Plant response rating, Soybean: 1
[4]; [17]
  Soybean plant response rating: 3
[4]; [18]
  Soybean plant response rating: 0
[4]; [19]
  Plant response rating, Soybean: 0
[4]; [20]
  Soybean plant response rating: 0
[4]; [21]
  Soybean plant response rating: 3
[4]; [22]
  Soybean plant response rating: 4
[5]; [23]
  Plant response rating, Nutsedge: 0
[5]; [17]
  Nutsedge plant response rating: 0
[5]; [18]
  Nutsedge plant response rating: 0
[5]; [19]
  Plant response rating, Nutsedge: 0
[5]; [21]
  Nutsedge plant response rating: 0
[5]; [22]
  Nutsedge plant response rating: 6
[6]; [23]
  Plant response rating, Sugarbeets: 0
[6]; [17]
  Sugarbeets plant response rating: 0
[6]; [18]
  Sugarbeets plant response rating: 0
[6]; [19]
  Plant response rating, Sugarbeets: 0
[6]; [20]
  Sugarbeets plant response rating: 0
[6]; [21]
  Sugarbeets plant response rating: 0
[6]; [22]
  Sugarbeets plant response rating: 0
[7]; [23]
  Plant response rating, Wild oats: 0
[7]; [17]
  Wild oats plant response rating: 0
[7]; [18]
  Wild oats plant response rating: 0
[7]; [19]
  Plant response rating, Wild oats: 0
[7]; [20]
  Wild oats plant response rating: 0
[7]; [21]
  Wild oats plant response rating: 0
[7]; [22]
  Wild oats plant response rating: 0
[8]; [23]
  Plant response rating, Rape: 0
[8]; [17]
  Rape plant response rating: 0
[8]; [18]
  Rape plant response rating: 0
[8]; [19]
  Plant response rating, Rape: 0
[8]; [20]
  Rape plant response rating: 0
[8]; [21]
  Rape plant response rating: 0
[8]; [22]
  Rape plant response rating: 0
[9]; [23]
  Plant response rating, Redroot pigweed: 5
[9]; [17]
  Redroot pigweed plant response rating: 5
[9]; [18]
  Redroot pigweed plant response rating: 0
[9]; [19]
  Plant response rating, Redroot pigweed: 0
[9]; [20]
  Redroot pigweed plant response rating: 5
[9]; [21]
  Redroot pigweed plant response rating: 8
[9]; [22]
  Redroot pigweed plant response rating: 8
[10]; Rate 62 g/ha, scale of 0 to 10 where 0 is no effect and 10 is complete control
  Bedstraw plant response rating: 0
[10]; Rate 125 g/ha, scale of 0 to 10 where 0 is no effect and 10 is complete control
  Plant response rating, Bedstraw: 0
[10]; Rate 250 g/ha, scale 0 (no effect) to 10 (complete control)
  Bedstraw plant response rating: 0
[10]; Rate 500 g/ha, scale of 0 to 10 where 0 is no effect and 10 is complete control
  Plant response rating, Bedstraw: 0
[11]; [23]
  Plant response rating, Velvetleaf: 4
[11]; [17]
  Velvetleaf plant response rating: 4
[11]; [18]
  Velvetleaf plant response rating: 0
[11]; [19]
  Plant response rating, Velvetleaf: 0
[11]; [20]
  Velvetleaf plant response rating: 0
[11]; [21]
  Velvetleaf plant response rating: 4
[11]; [22]
  Velvetleaf plant response rating: 6
[12]; [23]
  Plant response rating, Cocklebur: 0
[12]; [17]
  Cocklebur plant response rating: 0
[12]; [18]
  Cocklebur plant response rating: 0
[12]; [19]
  Plant response rating, Cocklebur: 0
[12]; [20]
  Cocklebur plant response rating: 0
[12]; [24]
  Plant response rating, Cocklebur: 0
[12]; [21]
  Cocklebur plant response rating: 0
[12]; [22]
  Cocklebur plant response rating: 3
[13]; [23]
  Plant response rating, Wheat: 0
[13]; [17]
  Wheat plant response rating: 0
[13]; [18]
  Wheat plant response rating: 0
[13]; [19]
  Plant response rating, Wheat: 0
[13]; [20]
  Wheat plant response rating: 0
[13]; [21]
  Wheat plant response rating: 0
[13]; [22]
  Wheat plant response rating: 0
[14]; [23]
  Plant response rating, Blackgrass: 0
[14]; [17]
  Blackgrass plant response rating: 0
[14]; [18]
  Blackgrass plant response rating: 0
[14]; [19]
  Plant response rating, Blackgrass: 0
[14]; [20]
  Blackgrass plant response rating: 0
[14]; [24]
  Plant response rating, Blackgrass: 0
[14]; [21]
  Blackgrass plant response rating: 0
[14]; [22]
  Blackgrass plant response rating: 0
[15]; [23]
  Plant response rating, Corn: 0
[15]; [17]
  Corn plant response rating: 0
[15]; [18]
  Corn plant response rating: 0
[15]; [19]
  Plant response rating, Corn: 0
[15]; [20]
  Corn plant response rating: 0
[15]; [21]
  Corn plant response rating: 0
[15]; [22]
  Corn plant response rating: 0
[16]; [23]
  Plant response rating, Crabgrass: 2
[16]; [17]
  Crabgrass plant response rating: 3
[16]; [18]
  Crabgrass plant response rating: 2
[16]; [19]
  Plant response rating, Crabgrass: 3
[16]; [20]
  Crabgrass plant response rating: 7
[16]; [21]
  Crabgrass plant response rating: 6
[16]; [22]
  Crabgrass plant response rating: 8
